Measured values as given in patent publication US10500194B2, “Covalent small molecule DCN1 inhibitors and therapeutic methods using the same” (THE REGENTS OF THE UNIVERSITY OF MICHIGAN, priority 2017, dated 2019).

Assays:
[1] = target: T1, DCN1 (Homo sapiens (Human), UniProt Q96GG9); test: Mass spectroscopy of DCN1 protein incubations; assay type: binding; conditions: for ablation of the parent peak in the mass spectrum / major new peak (protein-inhibitor adduct) / mass of new peak (DCN1 plus inhibitor, loss of morpholinyl group): DCN1 380 μM, 1.2 fold excess of inhibitor, 4° C. overnight, Q-TOF; for difference from DCN1 Apo-protein mass: FIG. 2; for formation of a covalent bond with DCN1 protein: FIG. 2, mass-spectroscopic analyses
T1 sequence (Q96GG9 58-259): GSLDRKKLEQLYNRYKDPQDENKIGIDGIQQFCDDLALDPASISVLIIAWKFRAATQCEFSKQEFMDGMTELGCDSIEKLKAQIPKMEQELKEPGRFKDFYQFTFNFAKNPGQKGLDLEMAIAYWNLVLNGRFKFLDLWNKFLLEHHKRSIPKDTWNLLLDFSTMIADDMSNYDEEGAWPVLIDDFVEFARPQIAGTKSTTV
Procedure: (§1) Human DCN1 (residues 58-259) were cloned into a pDEST17 plasmid containing an N-terminal His6 tag. DCN2 (residues 62-259), DCN3 (residues 86-304), DCN4 (residues 102-292) and DCN5 (residues 47-237) were cloned into an N-terminal His6-TEV expression vector. Pure proteins were derived from the same expression and purification protocols. Plasmids were transformed into Rosetta2 cells, the cells were grown in Terrific Broth at 37° C. to an O.D.600>1.0 and induced with 0.4 mM Isopropyl β-D-1-thiogalactopyranoside overnight at 20° C. The pelleted cells were resuspended in lysis buffer containing 25 mM Tris-HCl, pH 7.5, 200 mM NaCl and protease inhibitors, sonicated and centrifuged at 34,000×g for 45 minutes to remove debris. Cleared lysate was incubated with Ni-NTA resin (Qiagen) prewashed with lysis buffer, for 1 hr at 4° C. The matrix was loaded into a column then washed with 25 mM Tris-HCl, pH 7.5, 200 mM NaCl and 10 mM imidazole. Protein was eluted with 25 mM Tris-HCl, pH 7.5, 200 mM NaCl and 300 mM imidazole, concentrated and applied to a Superdex 75 (GE Healthcare) column pre-equilibrated with 25 mM Tris pH 7.5, 200 mM NaCl and 1 mM DTT. For DCN2-5, the N-terminal His6 tag was removed prior to gel filtration. Tag removal was achieved through incubation with TEV protease during overnight dialysis against 25 mM Tris pH 7.5, 200 mM NaCl and 1 mM DTT and a second Ni-NTA column. DCN2-5 proteins were stored at −80° C. in 1 mg/mL fractions containing 5% glycerol. The uncleaved DCN1 protein was stored at −80° C. without glycerol.
Recombinant DCN1 protein (380 μM) in 25 mM Tris 7.5, 200 mM NaCl, 1 mM DTT buffer was incubated with a 1.2 fold excess of selected DCN1 inhibitors at 4° C. for overnight. The reaction mixture was diluted with tenfold with water, and the protein was analyzed by Q-TOF mass spectroscopy. DCN1 untreated, or treated with previously described non-covalent inhibitors produced an isotope deconvoluted peak at 26.085.75 amus. Incubation under the described conditions with Examples 4, 7 and 9 led to 95-99% ablation of the parent peak in the mass spectrum, with a major (>90%) new peak appearing at 26588.96 amu (Dalton) for Example 4, 26604.34 amu for Example 7, and 26596.18 amu for Example 9. In each case this corresponds to addition of the inhibitor to the protein, coupled with the loss of the morpholinyl group, from the initial Michael adduct between the protein and the small molecule.

[2] = target: T1, DCN1; test: Competitive FP binding assay; conditions: read-out: Binding affinity to DCN1 (IC50)
Procedure: The Fluorescence Polarization (FP) competitive binding assays were performed to accurately determine the binding affinities of our DCN1 inhibitors. A novel FAM labeled fluorescent probe compound (46) was designed and synthesized based on one of our potent small molecule DCN1 inhibitors. Equilibrium dissociation constants (Kd) values of 46 to both DCN1 and DCN2 proteins were determined from protein saturation experiments by monitoring the total FP values of mixtures composed with the fluorescent probe at a fixed concentration and proteins with increasing concentrations up to full saturation. Serial dilutions of proteins were mixed with 46 to a final volume of 200 μl in the assay buffer (100 mM phosphate buffer, pH=6.5, with 0.02% Tween-20 and 2% DMSO). Final probe concentration was 5 nM for both assays. Plates were incubated at room temperature for 30 minutes with gentle shaking to assure equilibrium. FP values in millipolarization units (mP) were measured using the Infinite M-1000 plate reader (Tecan U.S., Research Triangle Park, N.C.) in Microfluor 1 96-well, black, round-bottom plates (Thermo Scientific, Waltham, Mass.) at an excitation wavelength of 485 nm and an emission wavelength of 530 nm. Kd values of 46 were calculated by fitting the sigmoidal dose-dependent FP increases as a function of protein concentrations using Graphpad Prism 6.0 software (Graphpad Software, San Diego, Calif.).
as §1

[3] = system: neddylation of cullin 3 and NRF2 protein in HepG2 cells; test: Western blotting of cullin neddylation and NRF2 in HepG2 cells; assay type: cell-based; conditions: 20 h, compared with non-covalent inhibitor B
Procedure: HepG2 cells were treated as indicated concentrations for 20 h, NRF2, Cullin 1, and Cullin 3 proteins were examined by western blotting. GAPDH was used as a loading control.
Treated cells were lysed by RIPA buffer supplemented with protease inhibitor. The expression level of indicated proteins was examined by western blotting analysis. GAPDH was used as a loading control. Antibodies were purchased: Cullin 1 (sc-11384), Cullin2 (sc-10781), CullinS (sc-13014) and Cullin7 (sc-134565) from Santa Cruz Biotech. (Santa Cruz, Calif.); Cullin 4A (PA5-14542), Cullin 4B (PA5-35239), Cullin9 (PA5-20277), DCN2 (DCUNID2, PA5-31607) and DCN3 (DCUNID3, PA5-44000) from ThermoFisher Scientific (Wayne, Mich.); Cullin 3 (2759), NRF2 (12721), HO-1 (70081), NQO1 (3187), Cyclin E (4129), Bim (2819), Keap1 (8047) and UBC12 (4913) from Cell Signaling Technology (Boston, Mass.); DCN1 (GWB-E3D700) from GenWay Biotech (San Diego, Calif.). Results are representative of three independent experiments.

[4] = system: Nrf2 protein; test: Effect of covalent DCN1 inhibitors on Nrf2 protein level in mouse liver; assay type: in vivo; conditions: single dose 25 mg/kg IP, C57BL/6 male mice, western blotting
Procedure: Liver tissues harvested from C57BL/6 male mice treated with Example 9 (DI-1548) at 25 mg/kg via intraperitoneal (IP) injection were lysed with RIAP buffer. The expression level of Nrf2 protein was examined by western blotting. GAPDH was used a loading control.
The effect of several representative covalent DCN1 inhibitors (Examples 9, 21 and 22) on the level of Nrf2 protein in mouse liver was examined. Mice were administered with a single dose of Example 9 (DI-1548), Example 21 (DI-1859) or Example 22 (DI-1860) at 25 mg/kg, or phosphate-buffered saline (PBS), all via intraperitoneal (IP) injection. Mice were sacrificed at different time points and liver tissues were harvested for western blotting analysis for Nrf2 protein level. The data are shown in FIGS. 5, 6 and 7, respectively.

[5] = system: APAP-induced liver injury; test: Protection of mice from acetaminophen-induced liver injury (blood ALT activity); assay type: in vivo
Procedure: To induce acute liver injury, mice were administered a large dose (400 mg/kg) of APAP via intraperitoneal (I.P.) injection and were sacrificed 48 hr later. To examine the protective effect of DI-1859 (pretreatment), animals were I.P. injected with DI-1859 for three consecutive days (one day before APAP injection, three hours before APAP injection and a third dose on the next day after APAP injection). To examine the restorative effect of DI-1859 (post-treatment), mice were treated with DI-1859 three hours after APAP administration followed by two additional doses on the following two days. Two control groups of mice were treated with phosphate-buffered saline (PBS) or DI-1859, respectively. Blood sample collection was performed on each day.
The activity of alanine aminotransferase (ALT) in blood is a commonly used measurement clinically as a part of a diagnostic evaluation of liver injury, to determine liver health. Therefore, the blood ALT activity was measured using an ALT reagent set (Pointe Scientific Inc., Canton, Mich.). […] Furthermore, post-treatment of APAP with DI-1859 at 50 mg/kg reduces the APAP-induced elevated ALT level by approximately 50%.

SMILES	ablation of the parent peak in the mass spectrum [1]	major new peak (protein-inhibitor adduct) [1] [%]	mass of new peak (DCN1 plus inhibitor, loss of morpholinyl group) [1] [amu]	difference from DCN1 Apo-protein mass [1] [Da]	formation of a covalent bond with DCN1 protein [1]	IC50 [2] [µM]	level of Nrf2 protein in mouse liver tissue [4]	also measured
C=C(CN1CCOCC1)C(=O)NC[C@@H](NC(=O)[C@H](Cc1nc2ccc(Cl)cc2s1)NC(=O)CC)C1CCCCC1 [Example 4, N—((S)-2-((S)-3-(6-chlorobenzo[d]thiazol-2-yl)-2-propionamidopropanamido)-2-cyclohexylethyl)-2-(morpholinomethyl)acrylamide]	95-99%	> 90	26588.96	503.21	formation of a covalent bond	0.0416	–	–
C=C(CN1CCOCC1)C(=O)NC[C@H](Cc1ccccc1)NC(=O)[C@H](Cc1nc2ccc(C(C)C)cc2s1)NC(=O)CC [Example 7, N—((S)-2-((S)-3-(6-prop-2-ylbenzo[d]thiazol-2-yl)-2-propionamidopropanamido)-3-phenylpropyl)-2-(morpholinomethyl)acrylamide]	95-99%	> 90	26604.34	518.59	formation of a covalent bond	0.0374	–	–
C=C(CN1CCOCC1)C(=O)NC[C@@H](NC(=O)[C@H](Cc1nc2ccc(C(C)C)cc2s1)NC(=O)CC)C1CCCCC1 [Example 9, N—((S)-2-((S)-3-(6-prop-2-ypbenzo[d]thiazol-2-yl)-2-propionamidopropanamido)-2-cyclohexylethyl)-2-(morpholinomethyl)acrylamide]	95-99%	> 90	26596.18	510.81	formation of a covalent bond	0.0665	effectively increases	increasing the level of NRF2 protein [3]: much stronger biological activity; inhibition of neddylation of cullin 3 [3]: much stronger biological activity
C=C(CN(C)C)C(=O)NC[C@@H](NC(=O)[C@H](Cc1nc2ccc(C(C)C)cc2s1)NC(=O)CC)C1CCCCC1 [Example 21, N—((S)-2-cyclohexyl-2-((S)-3-(6-isopropylbenzo[d]thiazol-2-yl)-2-propionamidopropanamido)ethyl)-2-((dimethylamino)methyl)acrylamide]	–	–	–	–	–	< 0.15	effectively increases	reduction of APAP-induced elevated ALT level, post-treatment ([5]; APAP 400 mg/kg I.P., post-treatment at 50 mg/kg): approximately 50%; elevation of ALT activity by APAP, pretreatment ([5]; APAP 400 mg/kg I.P., pretreatment at 50 mg/kg): completely prevents; elevated ALT activity induced by APAP, pretreatment ([5]; APAP 400 mg/kg I.P., pretreatment, dose-dependent): effectively reduces; APAP-induced alanine aminotransferase (ALT) increase ([5]; pre- or post-treatment, APAP, FIG. 8): effectively blocks or reduces
C=C(CN(CC)CC)C(=O)NC[C@@H](NC(=O)[C@H](Cc1nc2ccc(C(C)C)cc2s1)NC(=O)CC)C1CCCCC1 [Example 22, N—((S)-2-cyclohexyl-2-((S)-3-(6-isopropylbenzo[d]thiazol-2-yl)-2-propionamidopropanamido)ethyl)-2-((diethylamino)methyl)acrylamide]	–	–	–	–	–	< 0.15	effectively increases	–
CCC(=O)N[C@@H](Cc1nc2ccc(C(C)C)cc2s1)C(=O)N[C@H](CNC(=O)CCl)C1CCCCC1 [Example 38, (S)—N—((S)-2-(2-chloroacetamido)-1-cyclohexylethyl)-3-(6-isopropylbenzo[d]thiazol-2-yl)-2-propionamidopropanamide]	–	–	–	–	–	< 0.15	–	–
CCC(=O)N[C@@H](Cc1nc2ccc(C(C)C)cc2s1)C(=O)N[C@H](CNC(=O)/C=C/CN1CCOCC1)C1CCCCC1 [Example 39, (E)-N—((S)-2-cyclohexyl-2-((S)-3-(6-isopropylbenzo[d]thiazol-2-yl)-2-propionamidopropanamido)ethyl)-4-morpholinobut-2-enamide]	–	–	–	–	–	< 0.15	–	–
